Measurements: patent publication USRE43390E1, “Pleuromutilin derivatives as antimicrobials” (GlaxoSmithKline LLC, priority 1997, dated 2012)

How the values were obtained:
Test in all cases: antibacterial activity, MIC by standard broth dilution method in microtitre
Format in all cases: cell-based
[1] = test system: Streptococcus pneumoniae 1629; conditions: S.p. = Streptococcus pneumoniae 1629
Experimental: (§1) The following Table illustrates the antibacterial activities of representative mutilin 14-esters. Activities are given as minimum inhibitory concentrations in micrograms per milliliter (10^−6 g/ml), and were determined using a standard broth dilution method in microtitre.

[2] = test system: Morazella catarrhalis Ravasio; conditions: M.c. = Morazella catarrhalis Ravasio
Experimental: as §1

Escherichla coli DCU = conditions: E.c. = Escherichla coli DCU
Experimental: as §1

[3] = test system: Staphylococcus aureus Oxford; conditions: S.a. = Staphylococcus aureus Oxford
Experimental: as §1

[4] = test system: Haemophilius influenzae Q1; conditions: H.i. = Haemophilius influenzae Q1
Experimental: as §1

Structure (SMILES) | minimum inhibitory concentrations [1] | minimum inhibitory concentrations [2] | minimum inhibitory concentrations (Escherichla coli DCU) [micrograms per milliliter] | minimum inhibitory concentrations [3] | minimum inhibitory concentrations [4] [micrograms per milliliter]
C=C[C@]1(C)C[C@@H](OC(=O)CSC23CCN(CC2)CC3)[C@]2(C)[C@H](C)CC[C@]3(CCC(=O)[C@H]32)[C@@H](C)[C@@H]1O [Example 1, Mutilin 14-(quinuclidin-4-yl-sulfanyl)-acetate] | ≦0.06 micrograms per milliliter | ≦0.06 micrograms per milliliter | 16 | ≦0.06 micrograms per milliliter | 0.25
C=C[C@]1(C)C[C@@H](OC(=O)CSC2CCN(C)CC2)[C@]2(C)[C@H](C)CC[C@]3(CCC(=O)[C@H]32)[C@@H](C)[C@@H]1O [Example 15, Mutilin-14-(1-methylpiperid-4-ylsulfanyl)-acetate] | ≦0.06 micrograms per milliliter | ≦0.06 micrograms per milliliter | 64 | ≦0.06 micrograms per milliliter | 0.5
C=C[C@]1(C)C[C@@H](OC(=O)CSC2CC3CCC(C2)N3C)[C@]2(C)C(C)CC[C@]3(CCC(=O)[C@H]32)[C@@H](C)[C@@H]1O (stereo partly drawn) [Example 50, Mutilin 14-(exo-8-methyl-8-azabicyclo[3.2.1]oct-3-ylsulfanyl)-acetate] | ≦0.06 micrograms per milliliter | ≦0.06 micrograms per milliliter | 32 | ≦0.06 micrograms per milliliter | 0.5
C=C[C@]1(C)C[C@@H](OC(=O)CO)[C@]2(C)[C@H](C)CC[C@]3(CCC(=O)[C@H]32)[C@@H](C)[C@@H]1O [Pleuomutilin, Pleuromutilin] | 8 micrograms per milliliter | 0.5 micrograms per milliliter | >64 | 2 micrograms per milliliter | 2
C=C[C@]1(C)C[C@@H](OC(=O)CSCCN(CC)CC)[C@]2(C)[C@H](C)CC[C@]3(CCC(=O)[C@H]32)[C@@H](C)[C@@H]1O [Tiamulia, Tiamulin, reference compound] | 0.25 micrograms per milliliter | 0.125 micrograms per milliliter | >64 | 0.25 micrograms per milliliter | 2
